Measurements taken from patent US7968570B2, “Isoindolone compounds and their use as metabotropic glutamate receptor potentiators” (AstraZeneca AB, priority 2004, dated 2011).

What follows are compounds tested against T1, human mGluR2 receptor (Homo sapiens, UniProt Q14416) (assay: [35S]-GTPγS binding assay of mGluR2 receptor activation). Details: not given.
T1 construct: expressed in transfected cells
T1 sequence (Q14416 19-872): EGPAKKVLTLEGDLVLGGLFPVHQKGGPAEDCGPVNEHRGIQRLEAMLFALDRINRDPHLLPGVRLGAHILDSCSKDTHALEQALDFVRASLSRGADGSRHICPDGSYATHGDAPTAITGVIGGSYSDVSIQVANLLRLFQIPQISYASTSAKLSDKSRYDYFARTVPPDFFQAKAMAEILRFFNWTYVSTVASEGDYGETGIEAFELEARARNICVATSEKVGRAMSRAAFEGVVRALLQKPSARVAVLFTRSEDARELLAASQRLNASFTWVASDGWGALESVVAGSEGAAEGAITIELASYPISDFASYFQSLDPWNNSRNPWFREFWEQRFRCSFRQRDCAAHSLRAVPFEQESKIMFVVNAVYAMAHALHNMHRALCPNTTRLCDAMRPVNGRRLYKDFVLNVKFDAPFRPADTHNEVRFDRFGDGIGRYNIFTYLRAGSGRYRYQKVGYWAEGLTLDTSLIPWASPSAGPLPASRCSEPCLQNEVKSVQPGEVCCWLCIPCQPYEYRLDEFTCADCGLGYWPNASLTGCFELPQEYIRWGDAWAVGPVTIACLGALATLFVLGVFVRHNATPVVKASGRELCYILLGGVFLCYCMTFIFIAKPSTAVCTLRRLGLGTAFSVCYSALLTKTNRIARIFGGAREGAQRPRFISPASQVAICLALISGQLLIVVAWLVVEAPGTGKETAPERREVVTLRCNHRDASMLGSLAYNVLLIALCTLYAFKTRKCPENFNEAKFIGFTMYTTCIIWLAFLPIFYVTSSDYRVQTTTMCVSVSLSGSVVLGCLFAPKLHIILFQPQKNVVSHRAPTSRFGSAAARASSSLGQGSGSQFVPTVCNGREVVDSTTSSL
Format: biochemical
Experimental: A [^35S]-GTPγS binding assay was used to functionally assay mGluR2 receptor activation. The allosteric activator activity of compounds at the human mGluR2 receptor were measured using a [^35S]-GTPγS binding assay with membranes prepared from CHO cells which stably express the human mGluR2. The assay is based upon the principle that agonists bind to G-protein coupled receptors to stimulate GDP-GTP exchange at the G-protein. Since [^35S]-GTPγS is a non-hydrolyzable GTP analog, it can be used to provide an index of GDP-GTP exchange and, thus, receptor activation. The GTPγS binding assay therefore provides a quantitative measure of receptor activation.
Membranes were prepared from CHO cells stably transfected with human mGluR2. Membranes (30 μg protein) were incubated with test compound (3 nM to 300 μM) for 15 minutes at room temperature prior to the addition of 1 μM glutamate, and incubated for 30 min at 30° C. in 500 μl assay buffer (20 mM HEPES, 100 mM NaCl, 10 mM MgCl2), containing 30 μM GDP and 0.1 nM [^35S]-GTPγS (1250 Ci/mmol). Reactions were carried out in triplicate in 2 ml polypropylene 96-well plates. Reactions were terminated by vacuum filtration using a Packard 96-well harvester and Unifilter-96, GF/B filter microplates. The filter plates were washed 4×1.5 ml with ice-cold wash buffer (10 mM sodium phosphate buffer, pH 7.4). The filter plates were dried and 35 μl of scintillation fluid (Microscint 20) was added to each well. The amount of radioactivity bound was determined by counting plates on the Packard TopCount. Data was analyzed using GraphPad Prism, and EC50 and Emax values (relative to the maximum glutamate effect) were calculated using non-linear regression.
An EC50 of 1510 nM was found for `CCCN1CCC(Cc2cc(C)c3c(c2)CN(Cc2ccc(OC(F)(F)F)cc2)C3=O)CC1` [Example 172, 7-methyl-5-(1-propyl-piperidin-4-ylmethyl)-2-(4-trifluorometh-oxy-benzyl)-2,3-dihydro-isoindol-1-one] in this work. An EC50 of 140 nM was found for `Cc1cc(CC2CCN(Cc3cccnc3)CC2)cc2c1C(=O)N(Cc1ccc(OC(F)(F)F)cc1)C2` [Example 169, 7-methyl-5-(1-pyridin-3-ylmethyl-piperidin-4-ylmethyl)-2-(4-trifluorometh-oxy-benzyl)-2,3-dihydro-isoindol-1-one] in this work. An EC50 of 110 nM was found for `Cc1cc(-c2nc(CN3CCOCC3)no2)cc2c1C(=O)N(Cc1ccc(OC(F)(F)F)cc1)C2` [Example 178, 7-Methyl-5-(3-morpholin-4-ylmethyl-[1,2,4]oxadiazol-5-yl)-2-(4-trifluorometh-oxy-benzyl)-2,3-dihydro-isoindol-1-one] in this work. An EC50 of 40 nM was found for `Cc1cc(CC2CCN(Cc3ccc(C#N)cc3)CC2)cc2c1C(=O)N(Cc1ccc(OC(F)(F)F)cc1)C2` [Example 171, 4-{4-[7-methyl-1-oxo-2-(4-trifluorometh-oxy-benzyl)-2,3-dihydro-1H-isoindol-5-ylmethyl]-piperidin-1-ylmethyl}-benzonitrile] in this work.

Same assay, conditions: membranes from CHO cells stably expressing human mGluR2; 1 μM glutamate
An EC50 of 590 nM was found for `CN1CCN(c2cc(Cl)c3c(c2)CN(Cc2ccc(Cl)cc2)C3=O)CC1` [Example 133, 7-Chloro-2-(4-chlorobenzyl)-5-(4-methyl-piperazin-1-yl)-2,3-dihydroisoindol-1-one] in this work. An EC50 of 50 nM was found for `O=C1c2c(Cl)cc(-c3cccnc3)cc2CN1Cc1ccc(OC(F)(F)F)cc1` [Example 105, 7-Chloro-5-pyridin-3-yl-2-(4-trifluoromethoxy-benzyl)-2,3-dihydro-isoindol-1-one] in this work. An EC50 of 300 nM was found for `Cc1cc(N2CCC(N(C)C)C2)cc2c1C(=O)N(Cc1ccc(OC(F)(F)F)cc1)C2` (centres unmarked) [Example 115, 5-(3-dimethylamino-pyrollidin-1-yl)-7-methyl-2-(4-trifluoromethoxy-benzyl)-2,3-dihydroisoindol-1-one] in this work. An EC50 of 1200 nM was found for `Cc1cc(N2CCN(CCN(C)C)CC2)cc2c1C(=O)N(Cc1ccc(OC(F)(F)F)cc1)C2` [Example 140, 5-[4-(2-Dimethylamino-ethyl)-piperazin-1-yl]-7-methyl-2-(4-trifluoro-methoxy-benzyl)-2,3-dihydro-isoindol-1-one] in this work. An EC50 of 2520 nM was found for `Cc1ccc(CN2Cc3cc(NC4CCN(C(=O)OC(C)(C)C)C4)ccc3C2=O)cc1` (centres unmarked) [Example 110, 3-[2-(4-Methyl-benzyl)-1-oxo-2,3-dihydro-1H-isoindol-5-ylamino]-pyrrolidine-1-carboxylic acid tert-butyl ester] in this work. An EC50 of 4040 nM was found for `Cc1cc(N2CCN(Cc3ccncc3)CC2)cc2c1C(=O)N(Cc1ccc(N3CCN(Cc4ccncc4)CC3)cc1)C2` [Example 142, 7-Methyl-5-(4-pyridin-4-ylmethyl-piperazin-1-yl)-2-[4-(4-pyridin-4-ylmethyl-piperazin-1-yl)-benzyl]-2,3-dihydro-isoindol-1-one] in this work. An EC50 of 460 nM was found for `O=Cc1cnccc1-c1cc(Cl)c2c(c1)CN(Cc1ccc(Cl)cc1)C2=O` [Example 108, 4-[7-Chloro-2-(4-chloro-benzyl)-1-oxo-2,3-dihydro-1H-isoindol-5-yl]-pyridine-3-carbaldehyde] in this work. An EC50 of 1160 nM was found for `COc1cc(-c2cccnc2)cc2c1C(=O)N(Cc1ccc(Cl)cc1)C2` [Example 101, 2-(4-Chloro-benzyl)-7-methoxy-5-pyridin-3-yl-2,3-dihydro-isoindol-1-one] in this work. An EC50 of 2520 nM was found for `COc1cc(N2CCC(N(C)C)C2)cc2c1C(=O)N(Cc1ccc(OC(F)(F)F)cc1)C2` (centres unmarked) [Example 126, 5-(3- Dimethylaminopyrrolidin-1-yl)-7-methoxy-2-(4-trifluoromethoxy-benzyl)-2,3-dihydroisoindol-1-one] in this work. An EC50 of 370 nM was found for `Cc1cc(Br)cc2c1C(=O)N(Cc1ccc(OC(F)(F)F)cc1)C2` [Example 30, 5-Bromo-7-methyl-2-(4-trifluoromethoxy-benzyl)-2,3-dihydro-isoindol-1-one] in this work.
